Details in all cases: Table 35
The target in one test is RIP1 (Homo sapiens (Human), UniProt Q13546). Briefly: KINOMEscan binding assay, RIP1.
A further test addresses MLKL (full length) (Homo sapiens (Human), UniProt Q8NB16). Briefly: KINOMEscan binding assay, MLKL (full length). As to the method: (§1) Kinase assays. For most assays, kinase-tagged T7 phage strains were grown in parallel in 24-well blocks in an E. coli host derived from the BL21 strain. E. coli were grown to log-phase and infected with T7 phage from a frozen stock (multiplicity of infection=0.4) and incubated with shaking at 32° C. until lysis (90-150 minutes).
(§2) The Hill Slope was set to −1.

A further test has as its target RIP3 (Homo sapiens (Human), UniProt Q9Y572). In words: KINOMEscan binding assay, RIP3. Here is the method: as §1, §2

The record followed here is patent US20250074891A1 (Anaxis Pharma Pty Ltd., priority 2021, published 2025).

Some results are limits rather than exact numbers.

Chain of MLKL (full length) (Q8NB16 whole entry): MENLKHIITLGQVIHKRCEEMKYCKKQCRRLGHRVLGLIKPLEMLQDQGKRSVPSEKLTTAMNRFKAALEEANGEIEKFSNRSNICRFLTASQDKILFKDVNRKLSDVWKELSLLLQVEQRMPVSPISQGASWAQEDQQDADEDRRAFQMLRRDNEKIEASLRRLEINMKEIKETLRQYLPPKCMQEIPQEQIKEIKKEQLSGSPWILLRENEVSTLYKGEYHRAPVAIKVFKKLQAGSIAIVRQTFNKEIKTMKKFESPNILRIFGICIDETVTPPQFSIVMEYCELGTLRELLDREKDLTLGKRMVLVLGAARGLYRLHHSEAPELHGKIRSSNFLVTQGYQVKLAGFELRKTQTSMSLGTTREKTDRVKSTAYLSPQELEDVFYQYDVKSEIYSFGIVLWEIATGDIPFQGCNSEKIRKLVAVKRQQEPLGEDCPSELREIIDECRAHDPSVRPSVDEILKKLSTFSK
Chain of RIP1 (Q13546 whole entry): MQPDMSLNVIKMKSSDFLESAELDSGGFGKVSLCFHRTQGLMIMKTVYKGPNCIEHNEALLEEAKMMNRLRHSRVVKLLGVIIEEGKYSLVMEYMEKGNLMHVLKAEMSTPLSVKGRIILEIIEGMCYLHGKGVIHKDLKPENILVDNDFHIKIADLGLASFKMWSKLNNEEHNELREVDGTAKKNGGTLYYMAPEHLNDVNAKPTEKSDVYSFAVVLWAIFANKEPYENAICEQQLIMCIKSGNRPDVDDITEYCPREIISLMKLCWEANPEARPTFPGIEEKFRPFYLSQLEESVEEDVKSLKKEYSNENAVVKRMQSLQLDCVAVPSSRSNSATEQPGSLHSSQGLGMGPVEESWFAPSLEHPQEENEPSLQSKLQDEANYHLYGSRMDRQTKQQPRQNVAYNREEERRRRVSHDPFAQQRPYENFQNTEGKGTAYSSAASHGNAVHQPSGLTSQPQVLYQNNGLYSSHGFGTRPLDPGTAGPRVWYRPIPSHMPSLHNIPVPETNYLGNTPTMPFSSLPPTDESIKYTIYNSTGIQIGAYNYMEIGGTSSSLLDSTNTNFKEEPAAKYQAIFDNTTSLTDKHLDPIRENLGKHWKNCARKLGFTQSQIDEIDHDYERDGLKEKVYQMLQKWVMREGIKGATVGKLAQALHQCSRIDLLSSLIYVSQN
Chain of RIP3 (Q9Y572 whole entry): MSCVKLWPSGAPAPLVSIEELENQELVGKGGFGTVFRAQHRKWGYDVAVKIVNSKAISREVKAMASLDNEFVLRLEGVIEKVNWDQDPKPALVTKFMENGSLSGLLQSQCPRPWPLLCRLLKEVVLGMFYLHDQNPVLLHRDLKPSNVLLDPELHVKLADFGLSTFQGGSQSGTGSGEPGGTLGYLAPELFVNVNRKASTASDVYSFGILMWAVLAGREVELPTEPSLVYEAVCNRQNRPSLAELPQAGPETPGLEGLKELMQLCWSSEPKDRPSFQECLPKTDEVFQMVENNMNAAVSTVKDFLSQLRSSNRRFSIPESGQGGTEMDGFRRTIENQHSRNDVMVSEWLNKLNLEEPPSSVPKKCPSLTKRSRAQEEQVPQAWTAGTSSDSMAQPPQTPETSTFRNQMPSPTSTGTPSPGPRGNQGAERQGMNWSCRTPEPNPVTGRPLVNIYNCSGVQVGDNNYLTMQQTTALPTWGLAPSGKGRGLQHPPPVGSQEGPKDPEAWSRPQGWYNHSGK

Take `CCS(=O)(=O)Nc1ccc(-c2n[nH]c(Nc3cnccn3)c2C(N)=O)cc1OCc1ccccc1` [Compound 25, 3-(3-(benzyloxy)-4-(ethylsulfonamido)phenyl)-5-(pyrazin-2-ylamino)-1H-pyrazole-4-carboxamide]: the Kd at RIP1 was above 30 µM; at MLKL (full length), below 0.01 µM; at RIP3, above 30 µM.

For the compound `CCS(=O)(=O)Nc1ccc(-c2n[nH]c(Nc3cnccn3)c2C(N)=O)cc1OCc1cccc(F)c1` [Compound 26, 3-(4-(ethylsulfonamido)-3-((3-fluorobenzyl)oxy)phenyl)-5-(pyrazin-2-ylamino)-1H-pyrazole-4-carboxamide], the Kd was above 30 µM on RIP1, below 0.01 µM at MLKL (full length) and above 30 µM on RIP3.

For `CCS(=O)(=O)Nc1ccc(-c2n[nH]c(Nc3ccccn3)c2C(N)=O)cc1OCc1ccncc1` [Compound 27, 3-(4-(ethylsulfon-amido)-3-(pyridin-4-ylmethoxy)phenyl)-5-(pyridin-2-ylamino)-1H-pyrazole-4-carboxamide], the values for the Kd on RIP1, on MLKL (full length) and on RIP3 were above 30 µM, below 0.01 µM and above 30 µM, respectively.

As to `CCS(=O)(=O)Nc1ccc(-c2n[nH]c(Nc3cnccn3)c2C(N)=O)cc1OCc1ccncc1` [Compound 28, 3-(4-(ethylsulfonamido)-3-(226yridine-4-ylmethoxy)phenyl)-5-(pyrazin-2-ylamino)-1H-pyrazole-4-carboxamide], the dissociation constant (Kd) at RIP1 was above 30 µM; at MLKL (full length), below 0.01 µM; on RIP3 it was above 30 µM.

As to `N#CCS(=O)(=O)Nc1ccc(-c2n[nH]c(Nc3cccc(C(F)(F)F)n3)c2C(N)=O)cc1` [Compound 29, 3-(4-((cyanomethyl)sulfonamido)phenyl)-5-((6-(trifluoromethyl)pyridin-2-yl)amino)-1H-pyrazole-4-carboxamide], the Kd at RIP1 was above 30 µM; on MLKL (full length), below 0.01 µM; on RIP3, above 30 µM.

Consider `CCS(=O)(=O)Nc1ccc(-c2n[nH]c(Nc3ccccn3)c2C(N)=O)cc1OCc1ccc(F)cc1` [Compound 30, 3-(4-(ethylsulfon-amido)-3-((4-fluorobenzyl)oxy)phenyl)-5-(pyridin-2-ylamino)-1H-pyrazole-4-carboxamide], for which the dissociation constant (Kd) is above 30 µM at RIP1, below 0.01 µM on MLKL (full length) and above 30 µM at RIP3.

As for `CCS(=O)(=O)Nc1ccc(-c2n[nH]c(Nc3ccccn3)c2C(N)=O)cc1OCc1cccnc1` [Compound 31, 3-(4-(ethylsulfon-amido)-3-(pyridin-3-ylmethoxy)phenyl)-5-(pyridin-2-ylamino)-1H-pyrazole-4-carboxamide], the dissociation constant Kd on RIP1 is above 30 µM; at MLKL (full length), below 0.01 µM; at RIP3, above 30 µM.

In the case of `CCS(=O)(=O)Nc1ccc(-c2n[nH]c(Nc3cnccn3)c2C(N)=O)cc1OCc1cccnc1` [Compound 32, 3-(4-(ethylsulfonamido)-3-(226yridine-3-ylmethoxy)phenyl)-5-(pyrazin-2-ylamino)-1H-pyrazole-4-carboxamide], the Kd on RIP1 was above 30 µM; on MLKL (full length) it was below 0.01 µM; at RIP3, above 30 µM.

As for `CCS(=O)(=O)Nc1ccc(-c2n[nH]c(Nc3cnc(C(C)C)cn3)c2C(N)=O)cc1OCc1ccc(F)cc1` [Compound 34, 3-(4-(ethylsulfonamido)-3-((4-fluorobenzyl)oxy)phenyl) 5-((5-isopropylpyrazin-2-yl)amino)-1H-pyrazole-4-carboxamide], the figures for the Kd at RIP1, on MLKL (full length) and on RIP3 were above 30 µM, below 0.01 µM and above 30 µM, respectively.

For the compound `CCS(=O)(=O)Nc1ccc(-c2n[nH]c(Nc3cnccn3)c2C(N)=O)cc1OCC1CCCC1` [Compound 40, 3-(3-(cyclopentyl-methoxy)-4-(ethylsulfonamido)phenyl)-5-(pyrazin-2-ylamino)-1H-pyrazole-4-carboxamide], the Kd was above 30 µM on RIP1, below 0.01 µM at MLKL (full length) and above 30 µM on RIP3.

On to `CCS(=O)(=O)Nc1ccc(-c2n[nH]c(Nc3cnccn3)c2C(N)=O)cc1OCc1cccc(Cl)c1` [Compound 41, 3-(3-((3-chlorobenzyl)oxy)-4-(ethylsulfonamido)phenyl)-5-(pyrazin-2-ylamino)-1H-pyrazole-4-carboxamide], for which the Kd at RIP1 is above 30 µM; on MLKL (full length) it was below 0.01 µM; on RIP3, above 30 µM.

For the compound `CCS(=O)(=O)Nc1ccc(-c2n[nH]c(Nc3cnccn3)c2C(N)=O)cc1OCc1ccc(Cl)cc1` [Compound 42, 3-(3-((4-chlorobenzyl)oxy)-4-(ethylsulfonamido)phenyl)-5-(pyrazin-2-ylamino)-1H-pyrazole-4-carboxamide], the Kd on RIP1 is above 30 µM; at MLKL (full length) it was below 0.01 µM; at RIP3, above 30 µM.

Turning to `CCS(=O)(=O)Nc1ccc(-c2n[nH]c(Nc3cnccn3)c2C(N)=O)cc1OCC1CCCCC1` [Compound 47, 3-(3-(cyclohexyl-methoxy)-4-(ethylsulfonamido)phenyl)-5-(pyrazin-2-ylamino)-1H-pyrazole-4-carboxamide], the Kd at RIP1 was above 30 µM; at MLKL (full length), below 0.01 µM; at RIP3, above 30 µM.

As to `NC(=O)c1c(-c2ccc(NS(=O)(=O)C(F)F)cc2)n[nH]c1Nc1ccccn1` [Compound 48, 3-(4-((difluoromethyl)sulfonamido)phenyl)-5-(pyridin-2-ylamino)-1H-pyrazole-4-carboxamide], the Kd on RIP1 is above 30 µM; on MLKL (full length) it was below 0.01 µM; at RIP3, above 30 µM.

Turning to `CCS(=O)(=O)Nc1ccc(-c2n[nH]c(Nc3cnccn3)c2C(N)=O)cc1OCc1ccc(F)cc1` [Compound 62, 3-(4-(ethylsulfonamido)-3-((4-fluorobenzyl)oxy)phenyl) 5-(pyrazin-2-ylamino)-1H pyrazole-4-carboxamide], the Kd at RIP1 is above 30 µM; at MLKL (full length) it was below 0.01 µM; on RIP3, above 30 µM.

Turning to `NC(=O)c1c(-c2ccc(NS(=O)(=O)C(F)F)cc2)n[nH]c1Nc1cnccn1` [Compound 63, 3-(4-((difluoromethyl)sulfonamido)phenyl)-5-(pyrazin-2-ylamino)-1H-pyrazole-4-carboxamide], the Kd on RIP1 is above 30 µM; on MLKL (full length), below 0.01 µM; at RIP3 it was above 30 µM.

On to `CCS(=O)(=O)Nc1ccc(-c2n[nH]c(Nc3cnc4ccccc4n3)c2C(N)=O)cc1` [Compound 67, 3-(4-(ethylsulfonamido)phenyl)-5-(quinoxalin-2-ylamino)-1H-pyrazole-4-carboxamide], for which the Kd was above 30 µM on RIP1, below 0.01 µM on MLKL (full length) and above 30 µM on RIP3.

`NC(=O)c1c(-c2ccc(NS(=O)(=O)C3CC3)cc2)n[nH]c1Nc1cnccn1` [Compound 68, 3-(4-(cyclopropanesulfonamido)phenyl)-5-(pyrazin-2-ylamino)-1H-pyrazole-4-carboxamide]: the Kd on RIP1 is above 30 µM; on MLKL (full length), below 0.01 µM; on RIP3 it was above 30 µM.

`NC(=O)c1c(-c2ccc(NS(=O)(=O)Cc3ccc(Cl)cc3)cc2)n[nH]c1Nc1cnccn1` [Compound 70, 3-(4-(((4-chlorophenyl)methyl)sulfonamido)phenyl)-5-(pyrazin-2-ylamino)-1H-pyrazole-4-carboxamide]: the Kd on RIP1 was above 30 µM; at MLKL (full length) it was below 0.01 µM; on RIP3 it was above 30 µM.

Take `CCS(=O)(=O)Nc1ccc(-c2n[nH]c(Nc3cnc(C(F)(F)F)cn3)c2C(N)=O)cc1` [Compound 75, 3-(4-ethanesulfonamidophenyl)-5-{[5-(trifluoromethyl)pyrazin-2-yl]amino}-1H-pyrazole-4-carboxamide]: the values for the equilibrium dissociation constant (Kd) at RIP1, on MLKL (full length) and on RIP3 were above 30 µM, below 0.01 µM and above 30 µM, respectively.

For the compound `CCS(=O)(=O)Nc1ccc(-c2n[nH]c(Nc3cc4ccccc4cn3)c2C(N)=O)cc1` [Compound 87, 3-(4-(ethylsulfonamido)phenyl)-5-(isoquinolin-3-ylamino)-1H-pyrazole-4-carboxamide], the Kd is above 30 µM on RIP1, below 0.01 µM at MLKL (full length) and above 30 µM at RIP3.

As for `CCS(=O)(=O)Nc1ccc(-c2n[nH]c(Nc3cnc(OC)cn3)c2C(N)=O)cc1` [Compound 90, 3-(4-(ethylsulfonamido)phenyl)-5-((5-methoxypyrazin-2-yl)amino)-1H-pyrazole-4-carboxamide], the dissociation constant (Kd) is above 30 µM at RIP1, below 0.01 µM on MLKL (full length) and above 30 µM at RIP3.

On to `CCS(=O)(=O)Nc1ccc(-c2n[nH]c(Nc3ccc(C(F)(F)F)cn3)c2C(N)=O)cc1` [Compound 93, 3-(4-(ethylsulfonamido)phenyl)-5-((5-(trifluoromethyl)pyridin-2-yl)amino)-1H-pyrazole-4-carboxamide], for which the Kd at RIP1 was above 30 µM; on MLKL (full length), below 0.01 µM; on RIP3 it was above 30 µM.

In the case of `CCS(=O)(=O)Nc1ccc(-c2n[nH]c(Nc3cncc(OC)n3)c2C(N)=O)cc1` [Compound 99, 3-(4-(ethylsulfonamido)phenyl)-5-((6-methoxypyrazin-2-yl)amino)-1H-pyrazole-4-carboxamide], the Kd at RIP1 was above 30 µM; at MLKL (full length) it was below 0.01 µM; at RIP3 it was above 30 µM.

For the compound `CCS(=O)(=O)Nc1ccc(-c2n[nH]c(Nc3cnn(C)c3)c2C(N)=O)cc1` [Compound 100, 3-(4-(ethylsulfonamido)phenyl)-5-((1-methyl-1H-pyrazol-4-yl)amino)-1H-pyrazole-4-carboxamide], the Kd is above 30 µM at RIP1, below 0.01 µM at MLKL (full length) and above 30 µM on RIP3.

Consider `CCS(=O)(=O)Nc1ccc(-c2n[nH]c(Nc3cnc(C)cn3)c2C(N)=O)cc1` [Compound 101, 3-(4-(ethylsulfonamido)phenyl)-5-((5-methylpyrazin-2-yl)amino)-1H-pyrazole-4-carboxamide], for which the Kd at RIP1 is above 30 µM; on MLKL (full length), below 0.01 µM; on RIP3, above 30 µM.
